Results as given in patent US20090117406A1, “CONCENTRATE FOR FILM PRESERVATION” (priority 2006, published 2009).

Tests used:
[1] = tested on: Aspergillus niger DSM 1988, Penicillium expansum DSM 1282 and Trichoderma viride DSM 63064; assay: Fungicide trial with weathering on plaster test pieces (VdL guideline 06), fungus mix 2; type: cell-based; details: rating after 21 days 0 or 1, for mixtures order of ppm follows order of active agents
Procedure: (§1) The sample to be tested is plaster. The untreated sample is equipped with the cited biocides or single active agents in different concentrations. […] For preparing the samples the plaster is equipped with biocides and from that test pieces are formed. For that purpose for each test piece 7 g plaster are weighed in a small plastic mould and spread evenly. For complete drying the plaster test pieces are stored for three days at room temperature. The prepared test bodies are put in 100 ml tap water each for three days the water being exchanged daily. Then a 15 h phase of drying follows in a circulation air cabinet at 50° C. and 60 circles/min. After three days of equi libration at room temperature the test pieces are sterilised superficially and brought in the biological test. The superficial sterilisation is carried directly before putting them on the nutritive substratum by a exposure to UV radiation on both sides each for 10 minutes under a mercury medium pressure radiator. The evaluations for fungus are carried out on malt extract agar (for example by Fluka). For mix 1 Alternaria alternata DSM 62010 and Ulocladium consortial DSM 6201 is used. For mix 2 Aspergillus niger DSM 1988, Penicillium expansum DSM 1282 and Trichoderma viride DSM 63064 is used. These are used as about 14 days old cultures on inclined agar tubes for producing suspension. For that purpose to each tube 3 ml sterile Ringer's solution are added, and then washed away with a sterile os (this corresponds with a germination index of about 10^8 to 10^9 KBE/ml [KBE=(Kolonie bildende Einheiten) units forming colonies]). […] The nutritive substratum with the put-on test pieces is injected with one of the listed fungus mixtures and incubated at room temperature. After 7, 14 and 21 days the test pieces are evaluated with respect to the fungus growth according to the following rating: 00=sample surface without fouling, with inhibitory aureole around test piece 0=sample surface without fouling, without inhibitory aureole around test piece […] […]

[2] = tested on: Alternaria alternata DSM 62010 and Ulocladium consortial DSM 6201; assay: Fungicide trial with weathering on plaster test pieces (VdL guideline 06), fungus mix 1; type: cell-based; details: rating after 21 days 0 or 1, for mixtures order of ppm follows order of active agents
Procedure: as §1

Row | SMILES | ppm a.i. in plaster dosed additionally (minimal ppm concentration as fungus growth is obstructed clearly) [1] | ppm a.i. in plaster dosed additionally (minimal ppm concentration as fungus growth is obstructed clearly) [2] [ppm]
1 | CCCC1COC(Cn2cncn2)(c2ccc(Cl)cc2Cl)O1 (stereo not drawn) [Propiconazol, 1-[[2-(2,4-dichlorphenyl)-4-propyl-1,3-dioxolane-2-yl]methyl] 1 H-1,2,4-triazol] | >2000(#) ppm | 2000
2 | N#Cc1c(Cl)c(Cl)c(Cl)c(C#N)c1Cl [CTL, 1,3-dicyano-2,4,5,6-tetrachlorbenzole] | 800 ppm | 400
3 | CCCCCCCCn1sccc1=O [OIT, 2-octyl-2H-isothiazole-3-one] | >500(#) ppm | 200
